The results in this text go back to the pKa sets of Baltruschat and Czodrowski (2020).

Where a SMILES comes first, the peptide text is derived from it.

For one data set the following is noted: acidic group.
Usually pKa stands for the negative logarithm of the acid dissociation constant. A low value points to a stronger acid or weaker base. Turning to `Cc1cc(C)nc([N-]S(=O)(=O)c2ccc(O)cc2)n1`, the pKa came to 9.16.
For `ONc1cc[n+](O)c2ccccc12`, the pKa came out at 3.89.
`Oc1ccc(/N=N/c2ccncc2)cc1` displayed a pKa of 7.73.
As for `CCN(CC)C(=S)NC(=O)c1ccc(C)cc1`, the pKa is 8.77.
`NC(=O)Cc1ccc(C(=O)O)cc1`: the pKa is 4.06.
`O=c1[nH]c(=S)[nH]c2nc[nH]c12`: the pKa was determined as 5.88.
`O=C(O)c1ccc([N+](=O)[O-])s1`: the pKa is 2.68.
`Cc1cnc2c(O)cccc2c1` returned a pKa of 9.75.
The compound `CCCC1(Br)C(=O)NC(=O)NC1=O` showed a pKa of 6.6.
As to `Cc1ccc(O)c2ncccc12`, the pKa amounted to 9.93.
On to `Oc1ccc(O)c(Cl)c1`, for which the pKa was 8.81.
Compound `O=C(O)c1cc(O)c(O)c(C(=O)O)[o+]1` had a pKa of 0.6.
The compound `Oc1cccc2cnccc12` returned a pKa of 8.45.
Take `O=C([O-])CNS(=O)(=O)c1ccccc1`: the pKa is 11.4.
Same read-out and setting: in the case of `CCCCC1(CC)C(=O)NC(=S)NC1=O` it was 7.37.
`C[n+]1ccc2ccc(O)cc2c1` had a pKa of 7.09.
The same measure, in the same setting: for `NC(=O)C(CC(=O)O)c1ccccc1` (stereo not given) the value was 4.23; for `CSc1cccc(O)c1`, 9.47.
`C=CCC1(C2C=CCCC2)C(=O)NC(=S)NC1=O` (stereo not given) showed a pKa of 7.25.
On the same count and under the same terms, for `O=[N+]([O-])c1ccc(O)cc1` the value was 7.13; for `O=C(C[n+]1cccc2c3ccccc3ccc21)c1ccc(-c2ccccc2)cc1`, 11.2.
Still for that read-out and setting: for `C=CC[NH2+]CCCCCCCCCCC(=O)O` the value was 4.7.
Compound `O=C1CCc2cc([N+](=O)[O-])ccc2C1` showed a pKa of 10.1.
Same read-out and setting: for `Cc1cc(C)cc(O)c1` the value was 10.1; for `CN(C)Cc1cc(CC(C)(C)C)ccc1O`, 11.5; for `CC(C)(C)N(O)C(=O)c1ccccc1`, 10.1.
`CC/C=C/C(=O)O` displayed a pKa of 4.69.
`O=S(=O)(Nc1ncccn1)c1ccc(O)cc1`: the pKa was found to be 6.37.
The same measure, in the same setting: in the case of `CCCOc1ccc(O)cc1` it was 10.2.
Consider `Cc1ccc(C(=O)Oc2ccccc2)c(O)c1`, for which the pKa was 9.44.
With `Oc1cc(-c2ccccc2)n(-c2ccccc2)n1`, the pKa was determined as 12.9.
`NC(=O)NOCC(=O)O` had a pKa of 2.6.
`CCN(CC)Cc1ccccc1O` came in with a pKa of 10.8.
Same read-out and setting: in the case of `NC(=O)C1=CN2CCC1CC2` it was 7.32.
For `[NH3+]CC(=O)N[C@@H](Cc1c[nH]c[nH+]1)C(=O)O`, the pKa was 2.61.
In the case of `NNC(=O)c1cccnc1`, the pKa was 11.5.
As for `Oc1cccc2ccnnc12`, the pKa is 8.25.
In turn, `CCOC(=O)/C=C(/C)O` yielded a pKa of 9.51.
Consider `Cc1ccc(C(=O)O)[nH]1`, for which the pKa stood at 5.
Turning to `CCC1(C2=CCCCC2)C(=O)NC(=S)NC1=O`, the pKa was 7.12.
On the same count and under the same terms, for `O=[N+]([O-])c1n[nH]c(Oc2ccccc2)n1` the value was 4.2; for `O=C(O)c1cc[n+](O)cc1`, -0.48; for `O=c1cccc(O)cc1`, 5.64.
On to `O=C(O)C[Se]c1cccc([N+](=O)[O-])c1`, for which the pKa was determined as 3.55.
The same measure, in the same setting: for `Oc1cccc2cccc(O)c12` the value was 6.71; for `O=C(O)C1CC[NH2+]C1` (stereo not given), 3.38; for `O=C(O)CC[C@H]1CC[C@H](O)CC1`, 4.86.
With `CCCCc1c(O)nc(NCC)[nH+]c1C`, the pKa is 5.04.
Turning to `CCNC(=O)CS`, the pKa was 8.14.
The same measure, in the same setting: for `CC(=O)[C@H]1CC=CC[C@@H]1C(=O)O` the value was 4.4; for `Oc1cccc(Br)c1`, 8.99; for `O=C(O)[C@@H]1CC[C@H](C(=O)O)[Se]1`, 3.55.
As to `CN(C)C(=S)NCC(=O)O`, the pKa amounted to 3.71.
With `O=c1oc2cc(O)ccc2cc1-c1nc2cc(Cl)ccc2o1`, the pKa came to 6.8.
Compound `CCCCN(C(=O)c1cc([N+](=O)[O-])ccc1O)c1ccc(/N=N/c2ccc3c(c2)OCCOCCOCCOCCOCCO3)cc1` had a pKa of 6.3.
With `CCCCNC(O)=S`, the pKa was 0.67.
Regarding `O=C(O)C(c1ccc(-c2ccccc2)cc1)C1(O)CCCCC1` (stereo not given), the pKa was 3.59.
The same measure, in the same setting: in the case of `CN(C)c1ccc(O)cc1` it was 10.2; in that of `Cc1nccc2c1[nH]c1cc(O)ccc12`, 9.47; in that of `N#CC(C#N)=C(C#N)Nc1cccc([N+](=O)[O-])c1`, 3.45.
`NC(=O)CC(=O)O` came in with a pKa of 3.61.
For the compound `O=C(NBr)c1ccccc1`, the pKa worked out at 7.3.
As for `O=C(O)c1ccc([N+](=O)[O-])cc1O`, the pKa stood at 1.83.
In the case of `c1nc(NC2CCCCC2)c2[nH]cnc2n1`, the pKa is 10.2.
Turning to `CC(C[Si](C)(C)CCCCl)C(=O)O` (stereo not given), the pKa is 5.05.
For `COC(=O)[C@H]1[C@@H]2Cc3c4[nH]c5ccccc5c4cc[n+]3C[C@H]2CC[C@H]1O`, the pKa was 10.7.
In turn, `O=C(NOC(=O)c1ccccc1)c1ccccc1` showed a pKa of 6.

Still in this data set, the particulars now being: basic group.
For `O=C(CCN1CCOCC1)c1cccc([N+](=O)[O-])c1`, the pKa turned out to be 6.5.
Regarding `Oc1ccc(/N=N/c2ccncc2)cc1`, the pKa was 4.65.
Still for that read-out and setting: for `C[C@@H]1CC[C@@H]2CCCN21` the value was 12; for `CN(C)/N=C(\N)CC[Si](C)(C)C`, 10.2; for `CCC(N)CO` (stereo not given), 9.53.
The same measure, in the same setting: for `CC(C)CN[C@H](c1ccccc1)[C@H](O)c1ccccc1` the value was 11.3; for `COC(=O)c1c2ccccc2nc2ccccc12`, 3.45.
With `CC(C(O)c1ccccc1)N(C)C` (stereo not given), the pKa stood at 9.3.
As to `Cc1cnc2c(O)cccc2c1`, the pKa was 4.93.
As to `[NH3+]Cc1ccncc1`, the pKa worked out at 4.05.
The same measure, in the same setting: in the case of `CCc1cncc(C)c1` it was 5.2.
Same read-out and setting: in the case of `c1cnc2c(c1)CCCC2` it was 6.6; in that of `NC(=O)CCc1ccncc1`, 5.58; in that of `Cc1ccc(O)c2ncccc12`, 5.29.
Same read-out and setting: for `Cn1c(=S)ccc2ccccc21` the value was -1.6; for `CCCN1CC(O[Si](C)(C)C)C1`, 8.89; for `Oc1cccc2cnccc12`, 5.4.
On to `C[NH+](C)CCNCC[NH+](C)C`, for which the pKa was 3.84.
`Clc1ccc(CNc2ncnc3[nH]ncc23)cc1` registered a pKa of 3.96.
The compound `NNCCO` registered a pKa of 7.12.
Compound `Cc1ncnc2ccccc12` showed a pKa of 2.52.
For the compound `COc1cccc(N)c1`, the pKa worked out at 4.23.
The compound `CCCCCC(C)(C)N` had a pKa of 10.8.
Same read-out and setting: for `CNC(C)CC1CCCCC1` (stereo not given) the value was 10.5.
As for `CCCCN(CC[S-])CCCC`, the pKa amounted to 11.6.
Still for that read-out and setting: for `CC[C@H](C)[C@H](N)C(=O)[O-]` the value was 9.77.
Compound `O=C([O-])CN=C1CCCC1` gave a pKa of 8.72.
In the case of `NOCc1ccccc1`, the pKa is 4.34.
The compound `O=[N+]([O-])c1cc(CN2CCOCC2)c([O-])c2ccccc12` had a pKa of 7.98.
Compound `Nc1ccc(C=O)cc1` returned a pKa of 1.74.
`CC(=O)/C(CN1CCCCC1)=N\[O-]` came in with a pKa of 10.7.
Compound `CC(C)N/C=[NH+]/c1ccc(-c2c[nH]cn2)cc1` yielded a pKa of 5.58.
As to `Nc1ccc(Oc2ccc(N)cc2)cc1`, the pKa turned out to be 5.18.
In turn, `Nc1ccc(-c2ccccc2)cc1` returned a pKa of 4.38.
On the same count and under the same terms, for `C[Si](C)(C)CNC[Si](C)(C)C` the value was 11; for `Nc1cncc2ccccc12`, 6.28.
On to `NCc1cccc(O)c1`, for which the pKa stood at 9.06.
In turn, `N[C@@H](Cc1c[nH]cn1)C(=O)NCC(=O)[O-]` (H-His-Gly-OH) showed a pKa of 7.82.
For `CCCNC(C)C(=O)Nc1ccccc1C` (stereo not given), the pKa amounted to 7.32.
On the same count and under the same terms, in the case of `S=C(/N=N/c1ccccc1)NNc1ccccc1` it was 4.64.
`CNc1cccc(C)c1` came in with a pKa of 4.94.
The same measure, in the same setting: for `CCN(CC)Cc1ccccc1O` the value was 8.81; for `N[C@H]1CC(=O)N(CCCC[C@H]([NH3+])C(=O)[O-])C1=O`, 6.
`Cc1[nH]cnc1CSCCNC(=N)NCCCc1c[nH]cn1` showed a pKa of 11.6.
`NNC(=O)c1cccnc1`: the pKa amounted to 3.27.
Still for that read-out and setting: for `Oc1cccc2ccnnc12` the value was 2.72; for `c1ccc2c(c1)CCCN2`, 4.96.
Regarding `C[Si](C)(C)c1ccc(N)cc1`, the pKa was found to be 4.36.
`Nc1cc2ccccc2nn1` showed a pKa of 3.66.
In the case of `CCCC[NH2+]CC/C(N)=N/O`, the pKa is 3.75.
Regarding `Nc1ccc2cc3ccccc3nc2c1`, the pKa turned out to be 8.04.
Take `COc1ccc(-c2cn3ccsc3n2)c(OC)c1`: the pKa worked out at 4.67.
Regarding `CN(C)CCNCCN`, the pKa came out at 9.91.
In the case of `Cc1cc(C)n(-c2cccc[nH+]2)n1`, the pKa is -2.4.
Compound `Cc1cc(C)c(C)nn1` gave a pKa of 4.81.
The same measure, in the same setting: for `Nc1ccncc1F` the value was 4.77; for `CN1CCN(C(c2ccccc2)c2ccccc2)CC1`, 8.05; for `c1ccc2c(c1)C1CCN2CC1`, 7.79.
Same read-out and setting: in the case of `Cc1ccc2ccccc2n1` it was 5.69; in that of `Nc1cc([N+](=O)[O-])cc2ccccc12`, 2.24.
In turn, `Cc1cc(C)c2ccccc2n1` gave a pKa of 5.11.
As to `NCCC#CC#CCCC(=O)[O-]`, the pKa turned out to be 9.27.
For `CCC(=O)SCCN(C)C`, the pKa was 8.28.
`Cc1n[nH]c2c(N)ncnc12` had a pKa of 5.02.
On the same count and under the same terms, in the case of `CNCCNCCN` it was 10.2; in that of `CC(C)(C)CC(=O)n1ccnc1`, 3.8.
The compound `Cc1cc(-c2ccccc2)nn2cc(C[NH+]3CCOCC3)nc12` yielded a pKa of 1.5.
`CC(=O)C(CCN1CCOCC1)(c1ccccc1)c1ccccc1` registered a pKa of 6.83.
The compound `Cc1nccc2c1[nH]c1cc(O)ccc12` showed a pKa of 7.39.
The compound `CN(C)CCc1c[nH]c2ccc([O-])cc12` returned a pKa of 11.2.
Still for that read-out and setting: for `CSc1cc(C)ncn1` the value was 3.25.
Still for that read-out and setting: for `C=CCC(C)(CN(CC)CC)OC(=O)c1ccccc1` (stereo not given) the value was 7.8; for `CN(C)/C=N/c1ccccc1[N+](=O)[O-]`, 5.65.
For `O=C([O-])c1ccnc2ccccc12`, the pKa amounted to 4.76.
`N#CC1C(=O)Cc2ccccc21` (stereo not given) returned a pKa of 4.8.
With `N[C@@H](C(=O)[O-])[C@H](O)C(=O)[O-]`, the pKa turned out to be 9.
For the compound `c1nc(NC2CCCCC2)c2[nH]cnc2n1`, the pKa is 4.2.
The compound `CC(C)CCNCCC(C)C` displayed a pKa of 10.9.
